Drawing on patent US9777039B2, “Somatostatin analogs and dimers thereof” (Ipsen Pharma S.A.S., priority 2012, dated 2017), this text covers Ki, EC50 and Emax for five compounds.

One experiment has as its target T1, hSSTR4 (Homo sapiens, UniProt P31391).
T1 construct: expressed in transfected cells; membranes
The experiment is described as follows: Somatostatin receptor radioligand binding assay, hSSTR4. The settings on record: CHO-K1 cell membranes, [125I-Tyr11]-SRIF-14; read-out: hSSTR4 Ki (nM) ± SEM. How it is done: (§1) The affinities of a test compound for the human somatostatin receptors were determined by radioligand binding assays in CHO-K1 cells stably transfected with each of the somatostatin receptor subtypes, hSSTR1-5. The cDNA coding sequences of the hSSTR1 (GenBank accession No. NM_001049.1), hSSTR2 (GenBank accession No. XM_012697.1), hSSTR3 (GenBank accession No. XM_009963.1), hSSTR4 (GenBank accession No. NM_001052.1) and hSSTR5 (GenBank accession No. XM_012565.1) were subcloned into the mammalian expression vector pcDNA3.1 (Life Technologies). Clonal cell lines stably expressing each of the somatostatin receptors were obtained by transfection into CHO-K1 cells (ATCC) and subsequently selected with culture media containing 0.8 mg/mL of G418 (Life Technologies).
(§2) Membranes for in vitro receptor binding assays were obtained by the following procedures. CHO-K1 cells expressing one of the somatostatin receptors were homogenized in ice-cold buffer with 10 mM Tris-HCl, 5 mM EDTA, 3 mM EGTA, 1 mM phenylmethylsuphonyl fluoride, pH 7.6, using Polytron PT10-35GT (Kinematica) at 18,000 rpm for 30 seconds and centrifuged at 500×g for 10 minutes. The supernatant containing the plasma membranes was centrifuged at 100,000×g for 30 minutes and the pellet was resuspended in buffer containing 20 mM glycine-glycine, 1 mM MgCl2, 250 mM sucrose, pH 7.2, for storage at −80° C. […]

A further experiment has as its target T2, hSSTR5 (Homo sapiens, UniProt P35346).
T2 construct: expressed in transfected cells; membranes
The experiment is described as follows: Somatostatin receptor radioligand binding assay, hSSTR5. The settings on record: CHO-K1 cell membranes, [125I-Tyr]-DPhe-cyclo(Cys-Tyr-DTrp-Lys-Val-Cys)-Thr-NH2; read-out: hSSTR5 Ki (nM) ± SEM. How it is done: as §1, §2

Another experiment concerns the target T3, hSSTR1 (Homo sapiens, UniProt P30872).
T3 construct: expressed in transfected cells; membranes
The experiment is described as follows: Somatostatin receptor radioligand binding assay, hSSTR1. The settings on record: CHO-K1 cell membranes, [125I-Tyr11]-SRIF-14; read-out: hSSTR1 Ki (nM) ± SEM. How it is done: as §1, §2

The next experiment has as its target T4, hSSTR3 (Homo sapiens, UniProt P32745).
T4 construct: expressed in transfected cells; membranes
The experiment is described as follows: Somatostatin receptor radioligand binding assay, hSSTR3. The note with it: CHO-K1 cell membranes, [125I-Tyr11]-SRIF-14; read-out: hSSTR3 Ki (nM) ± SEM. How it is done: as §1, §2

The target of experiment [1] is T5, hSSTR2 (Homo sapiens, UniProt P30874).
T5 construct: expressed in transfected cells
T5 sequence (P30874 whole entry): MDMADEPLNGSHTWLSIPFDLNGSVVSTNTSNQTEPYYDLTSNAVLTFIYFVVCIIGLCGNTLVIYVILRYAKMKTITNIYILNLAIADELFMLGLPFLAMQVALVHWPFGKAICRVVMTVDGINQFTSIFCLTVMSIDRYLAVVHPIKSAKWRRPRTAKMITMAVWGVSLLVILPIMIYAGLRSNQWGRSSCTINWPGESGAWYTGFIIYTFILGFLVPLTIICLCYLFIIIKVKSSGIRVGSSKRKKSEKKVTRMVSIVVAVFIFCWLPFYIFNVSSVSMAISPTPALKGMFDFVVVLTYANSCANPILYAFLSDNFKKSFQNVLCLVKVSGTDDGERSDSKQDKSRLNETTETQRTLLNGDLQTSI
Briefly: Intracellular calcium mobilization assay (FLIPR Calcium 4 assay kit). It counts as cell-based. The settings on record: for Emax: maximal effect in percentage of the maximal effect of SRIF-14, read-out: hSSTR2 % Emax ± SEM. The method, then:
The ability of select compounds according to the present invention to activate hSSTR2 was determined by the intracellular calcium mobilization assay using FLIPR Calcium 4 assay kit (Molecular Devices).
Cells expressing hSSTR2 were plated in 384-well microplates in tissue culture media and incubated for 16-24 hours at 37° C. in a humidified atmosphere with 5% CO2. Medium was replaced by loading buffer containing Hank's buffered saline, 20 mM HEPES, 2.5 mM probenecid and Calcium 4 dye, and the plates were incubated at 37° C. for 60 minutes. Various concentrations of the test compounds were applied to the cells during the fluorescence measurement with excitation at 485 nm and emission at 525 nm using the Flexstation III microplate reader (Molecular Devices).
The half maximal effective concentrations (EC50) were calculated by fitting data to sigmoid dose-response curves using GraphPad Prism version 5.03 (GraphPad Software, San Diego, Calif., USA). % Emax values represent the maximal effect of the test compound in percentage of the maximal effect of SRIF-14.
Reference Compound No. A, whose chemical name and corresponding structure are provided in Table V, was synthesized and its ability to activated hSSTR2 was determined by the same intracellular calcium mobilization assays using FLIPR Calcium 4 assay kit (Molecular Devices) and under the same experimental conditions for the test compounds, as described hereinabove, and the results thereof are provided in Table VI.

Experiment [2] concerns the target T5, hSSTR2. Briefly: Somatostatin receptor radioligand binding assay, hSSTR2. How it is done: as §1
Membranes for in vitro receptor binding assays were obtained by the following procedures. CHO-K1 cells expressing one of the somatostatin receptors were homogenized in ice-cold buffer with 10 mM Tris-HCl, 5 mM EDTA, 3 mM EGTA, 1 mM phenylmethylsuphonyl fluoride, pH 7.6, using Polytron PT10-35GT (Kinematica) at 18,000 rpm for 30 seconds and centrifuged at 500×g for 10 minutes. The supernatant containing the plasma membranes was centrifuged at 100,000×g for 30 minutes and the pellet was resuspended in buffer containing 20 mM glycine-glycine, 1 mM MgCl2, 250 mM sucrose, pH 7.2, for storage at −80° C.
For the hSSTR1, 2 and 5 assays, membranes and various concentrations of test compounds were incubated in 96-well plates for 60 minutes at 25° C. with 0.05 nM [^125I-Tyr^11]-SRIF-14 (for hSSTR1; PerkinElmer Life Science), 0.05 nM [^125I-Tyr]-seglitide (for hSSTR2; PerkinElmer Life Science) or 0.05 nM [^125I-Tyr]-DPhe-cyclo(Cys-Tyr-DTrp-Lys-Val-Cys)-Thr-NH2 (for hSSTR5; PerkinElmer Life Science) in 50 mM HEPES, 0.2% BSA, 0.1 mM MgCl2, pH 7.5.
The incubations were terminated by rapid filtration through GF/C glass microfiber filter plates (pre-wet with 0.3% polyethyleneimine and 0.1% BSA) using a 96-well cell harvester (Brandel). Plates were washed six times with 1 mL/well aliquots of ice-cold buffer containing 50 mM Tris buffer, pH 7.7. Specific binding is defined as the total radioligand bound minus the bound in the presence of 1000 nM SRIF-14.

The mark [3] stands for this setting: cells expressing hSSTR2, calcium mobilization, read-out: hSSTR2 EC50 (nM) ± SEM.
Setting [4] is: CHO-K1 cell membranes, [125I-Tyr]-seglitide, read-out: hSSTR2 Ki (nM) ± SEM.

Read-outs that look alike come from different tables or passages of the source. Residues, ends and D or L forms follow the SMILES beside them.

T3 sequence (P30872 whole entry): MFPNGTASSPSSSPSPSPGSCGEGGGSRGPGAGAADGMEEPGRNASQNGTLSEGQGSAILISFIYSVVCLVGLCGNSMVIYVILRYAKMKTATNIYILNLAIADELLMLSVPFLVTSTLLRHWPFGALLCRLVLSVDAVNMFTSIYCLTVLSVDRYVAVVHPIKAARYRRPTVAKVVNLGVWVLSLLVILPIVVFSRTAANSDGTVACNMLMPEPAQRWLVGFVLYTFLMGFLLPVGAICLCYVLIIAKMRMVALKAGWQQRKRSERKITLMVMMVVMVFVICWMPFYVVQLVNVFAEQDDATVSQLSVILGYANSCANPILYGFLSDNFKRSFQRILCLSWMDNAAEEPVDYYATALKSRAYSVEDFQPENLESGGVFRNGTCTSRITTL
T2 sequence (P35346 whole entry): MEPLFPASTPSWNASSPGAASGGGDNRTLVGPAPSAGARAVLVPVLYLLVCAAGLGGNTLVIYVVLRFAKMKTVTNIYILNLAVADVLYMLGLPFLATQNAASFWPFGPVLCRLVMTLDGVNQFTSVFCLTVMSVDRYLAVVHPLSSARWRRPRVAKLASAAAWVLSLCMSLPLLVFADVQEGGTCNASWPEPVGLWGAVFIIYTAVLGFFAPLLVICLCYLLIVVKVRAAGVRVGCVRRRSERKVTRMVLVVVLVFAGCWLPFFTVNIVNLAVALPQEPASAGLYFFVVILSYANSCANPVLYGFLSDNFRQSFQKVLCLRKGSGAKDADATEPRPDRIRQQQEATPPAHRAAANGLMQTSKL
T4 sequence (P32745 whole entry): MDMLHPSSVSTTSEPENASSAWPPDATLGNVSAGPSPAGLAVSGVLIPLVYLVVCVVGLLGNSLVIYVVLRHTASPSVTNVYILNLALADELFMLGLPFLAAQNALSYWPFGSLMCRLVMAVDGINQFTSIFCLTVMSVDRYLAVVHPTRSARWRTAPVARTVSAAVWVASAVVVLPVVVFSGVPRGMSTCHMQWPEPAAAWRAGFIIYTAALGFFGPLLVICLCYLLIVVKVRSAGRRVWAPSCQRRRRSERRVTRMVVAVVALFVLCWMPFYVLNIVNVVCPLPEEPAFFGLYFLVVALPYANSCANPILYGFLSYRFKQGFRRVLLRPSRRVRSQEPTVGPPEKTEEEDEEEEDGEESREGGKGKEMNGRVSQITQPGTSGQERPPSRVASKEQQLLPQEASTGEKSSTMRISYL
T1 sequence (P31391 whole entry): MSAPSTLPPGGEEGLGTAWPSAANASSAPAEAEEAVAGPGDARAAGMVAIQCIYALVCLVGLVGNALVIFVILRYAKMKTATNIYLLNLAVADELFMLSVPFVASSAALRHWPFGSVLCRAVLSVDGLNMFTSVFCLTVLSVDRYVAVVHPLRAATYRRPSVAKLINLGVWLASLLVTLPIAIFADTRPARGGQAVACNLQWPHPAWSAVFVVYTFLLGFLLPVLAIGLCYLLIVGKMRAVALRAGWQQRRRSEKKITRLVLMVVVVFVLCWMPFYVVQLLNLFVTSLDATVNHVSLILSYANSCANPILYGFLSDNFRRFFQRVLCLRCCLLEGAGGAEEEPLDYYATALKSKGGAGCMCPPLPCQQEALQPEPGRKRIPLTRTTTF

In general, Ki refers to a measure of affinity in units of concentration, obtained from inhibition or displacement. As a reminder, the EC50 is the concentration that produces a half-maximal response. One may read the Emax as the greatest response seen or fitted, relative to the assay's reference. `C[C@@H](O)[C@@H]1NC(=O)[C@H](CCCCN)NC(=O)[C@@H](Cc2c[nH]c3ccccc23)NC(=O)[C@H](Cc2ccncc2)NC(=O)[C@H](Cc2ccccc2)NC(=O)[C@H](CCCNC(=N)N)NC(=O)[C@H](N)CCCCNC(=O)[C@H](Cc2ccccc2)NC1=O` [Compound 1, cyclo(DLys-Arg-Phe-4Pal-DTrp-Lys-Thr-Phe)] (HELM PEPTIDE1{[dK].R.F.[O=C([C@H](Cc1ccncc1)N[*:1])[*:2]].[dW].K.T.F}$PEPTIDE1,PEPTIDE1,1:R3-8:R2$$$V2.0): the Ki was 76.3 ± 12.6 nM on hSSTR4; 0.31 ± 0.1 nM at hSSTR5; over 1000 nM at hSSTR1; 16.3 ± 7.1 nM at hSSTR3; 0.47 ± 0.03 nM at hSSTR2 [2] (setting [4]). For the same compound, the EC50 at hSSTR2 [1] (setting [3]) is 9.1 ± 3.9 nM. On hSSTR2 [1], the Emax is 96.3 ± 5.5%.
As to `C[C@@H](O)[C@@H]1NC(=O)[C@H](CCCCN)NC(=O)[C@@H](Cc2c[nH]c3ccccc23)NC(=O)[C@H](Cc2ccncc2)NC(=O)[C@H](Cc2ccccc2)NC(=O)[C@H](CCCNC(=N)N)NC(=O)[C@H](NC[C@H](Cc2ccc(O)cc2)NC(=O)CCc2cn(CC(=O)N[C@H](CN[C@@H]3CCCCNC(=O)[C@H](Cc4ccccc4)NC(=O)[C@H]([C@@H](C)O)NC(=O)[C@H](CCCCN)NC(=O)[C@@H](Cc4c[nH]c5ccccc45)NC(=O)[C@H](Cc4ccncc4)NC(=O)[C@H](Cc4ccccc4)NC(=O)[C@H](CCCNC(=N)N)NC3=O)Cc3ccc(O)cc3)nn2)CCCCNC(=O)[C@H](Cc2ccccc2)NC1=O` [Compound 5, 1-[(ethan-2-oyl)-Tyr-psi(CH2NH)-cyclo(DLys-Arg-Phe-4Pal-DTrp-Lys-Thr-Phe)],4-[(propan-3-oyl)-Tyr-psi(CH2NH)-cyclo(DLys-Arg-Phe-4Pal-DTrp-Lys-Thr-Phe)]-1,2,3-triazole], on hSSTR2 [1], the EC50 is 3.3 nM and the Emax is 88.6 ± 1.1%. On hSSTR2 [2], this compound yielded a Ki of 0.08 nM.
Taken in the same sequence, the figures for `C[C@@H](O)[C@@H]1NC(=O)[C@H](CCCCN)NC(=O)[C@@H](Cc2c[nH]c3ccccc23)NC(=O)[C@H](Cc2ccccc2)NC(=O)[C@H](Cc2ccccc2)NC(=O)[C@H](CCCNC(=N)N)NC(=O)[C@H](NC[C@H](Cc2ccc(O)cc2)NC(=O)CCc2cn(CC(=O)N[C@H](CN[C@@H]3CCCCNC(=O)[C@H](Cc4ccc(F)cc4)NC(=O)[C@H]([C@@H](C)O)NC(=O)[C@H](CCCCN)NC(=O)[C@@H](Cc4c[nH]c5ccccc45)NC(=O)[C@H](Cc4ccccc4)NC(=O)[C@H](Cc4ccccc4)NC(=O)[C@H](CCCNC(=N)N)NC3=O)Cc3ccc(O)cc3)nn2)CCCCNC(=O)[C@H](Cc2ccc(F)cc2)NC1=O` [Compound 6, 1-[(ethan-2-oyl)-Tyr-psi(CH2NH)-cyclo(DLys-Arg-Phe-Phe-DTrp-Lys-Thr-4FPhe)],4-[(propan-3-oyl)-Tyr-psi(CH2NH)-cyclo(DLys-Arg-Phe-Phe-DTrp-Lys-Thr-4FPhe)]-1,2,3-triazole] were 74.6 ± 15.6 nM, 93.6 ± 4.1% and 0.38 nM.
Take `C[C@@H](O)[C@@H]1NC(=O)[C@H](CCCCN)NC(=O)[C@@H](Cc2c[nH]c3ccccc23)NC(=O)[C@H](Cc2ccccc2)NC(=O)[C@H](Cc2ccccc2)NC(=O)[C@H](CCCNC(=N)N)NC(=O)[C@H](NC[C@H](Cc2ccc(O)cc2)NC(=O)CCc2cn(CC(=O)N[C@H](CN[C@@H]3CCCCNC(=O)[C@H](Cc4ccc(O)cc4)NC(=O)[C@H]([C@@H](C)O)NC(=O)[C@H](CCCCN)NC(=O)[C@@H](Cc4c[nH]c5ccccc45)NC(=O)[C@H](Cc4ccccc4)NC(=O)[C@H](Cc4ccccc4)NC(=O)[C@H](CCCNC(=N)N)NC3=O)Cc3ccc(O)cc3)nn2)CCCCNC(=O)[C@H](Cc2ccc(O)cc2)NC1=O` [Compound 7, 1-[(ethan-2-oyl)-Tyr-psi(CH2NH)-cyclo(DLys-Arg-Phe-Phe-DTrp-Lys-Thr-Tyr)],4-[(propan-3-oyl)-Tyr-psi(CH2NH)-cyclo(DLys-Arg-Phe-Phe-DTrp-Lys-Thr-Tyr)]-1,2,3-triazole]: on hSSTR2 [1], the EC50 came to 28.5 ± 11.5 nM and the Emax came out at 97.4 ± 1.2%. Also, the Ki at hSSTR2 [2] came out at 0.17 nM.
Consider `C[C@@H](O)[C@@H]1NC(=O)[C@H](CCCCN)NC(=O)[C@@H](Cc2c[nH]c3ccccc23)NC(=O)[C@H](Cc2ccncc2)NC(=O)[C@H](Cc2ccccc2)NC(=O)[C@H](CCCNC(=N)N)NC(=O)[C@H](NC[C@@H](N)Cc2ccc(O)cc2)CCCCNC(=O)[C@H](Cc2ccccc2)NC1=O` [Compound 21, Tyr-psi(CH2NH)-cyclo(DLys-Arg-Phe-4Pal-DTrp-Lys-Thr-Phe)], for which the Ki on hSSTR4 came to 112 ± 18.6 nM; at hSSTR5 it was 0.32 nM; on hSSTR1 it was 271 ± 160 nM; on hSSTR3 it was 5 nM; at hSSTR2 [2] (setting [4]), 0.02 ± 0.02 nM. In addition, the EC50 on hSSTR2 [1] (setting [3]) amounted to 4.4 ± 3.7 nM. Further, the Emax at hSSTR2 [1] is 103 ± 0.2%.
